Reference: patent publication US10787447B2, “Pharmaceutical compounds” (Heptares Therapeutics Limited, priority 2018, dated 2020)
pEC50: −log10 of the molar value. Read-outs that look alike come from different tables or passages of the source.

Tests used:
Format in all cases: cell-based
[1] = molecular target: T1, human muscarinic M1 receptor (Homo sapiens, UniProt P11229); assay: Alphascreen Surefire phospho-ERK1/2 functional assay, M1; settings: for pEC50: pEC50 M1, CHO cells stably expressing human M1
T1 sequence (P11229 1-460): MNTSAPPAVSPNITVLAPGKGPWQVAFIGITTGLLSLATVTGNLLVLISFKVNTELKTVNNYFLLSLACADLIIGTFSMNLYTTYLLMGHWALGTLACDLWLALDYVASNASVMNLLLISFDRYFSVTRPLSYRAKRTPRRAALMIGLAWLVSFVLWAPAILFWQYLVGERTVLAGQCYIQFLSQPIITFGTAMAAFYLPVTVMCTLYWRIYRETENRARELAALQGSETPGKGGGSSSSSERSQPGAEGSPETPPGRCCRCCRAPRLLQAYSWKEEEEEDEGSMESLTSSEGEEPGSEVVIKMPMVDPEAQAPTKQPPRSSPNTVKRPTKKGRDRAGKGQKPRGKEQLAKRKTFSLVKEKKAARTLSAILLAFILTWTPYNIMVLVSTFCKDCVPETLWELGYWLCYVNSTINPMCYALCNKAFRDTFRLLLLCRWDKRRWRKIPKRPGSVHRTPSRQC
Method: (§1) Functional assays were performed using the Alphascreen Surefire phospho-ERK1/2 assay (Crouch & Osmond, Comb. Chem. High Throughput Screen, 2008). ERK1/2 phosphorylation is a downstream consequence of both Gq/11 and Gi/o protein coupled receptor activation, making it highly suitable for the assessment of M1, M3 (Gq/11 coupled) and M2, M4 receptors (Gi/o coupled), rather than using different assay formats for different receptor subtypes. CHO cells stably expressing the human muscarinic M1, M2, M3 or M4 receptor were plated (25K/well) onto 96-well tissue culture plates in MEM-alpha+10% dialysed FBS. Once adhered, cells were serum-starved overnight. Agonist stimulation was performed by the addition of 5 μL agonist to the cells for 5 min (37° C.). Media was removed and 50 μL of lysis buffer added. After 15 min, a 4 μL sample was transferred to 384-well plate and 7 μL of detection mixture added.
For the vast majority of examples at least two diastereomers exist and these have been separated, unless otherwise stated, using the techniques of reversed phase HPLC, chiral HPLC or chiral SFC. Isomer assignment (Isomer 1, Isomer 2, etc.) is based on the retention time of the compound using the separation technique that was performed in the final purification step. By implication, this could be reversed phase HPLC, chiral HPLC or chiral SFC retention time, and this will vary from compound to compound.

[2] = molecular target: T2, human muscarinic M2 receptor (Homo sapiens, UniProt P08172); assay: Alphascreen Surefire phospho-ERK1/2 functional assay, M2; settings: for Emax: CHO, read-out: % Emax cf. ACh, M2, CHO cells stably expressing human M2; for Emax / % Emax cf. ACh, M2: Emax relative to ACh; for pEC50: pEC50 M2, CHO cells stably expressing human M2
T2 sequence (P08172 1-466): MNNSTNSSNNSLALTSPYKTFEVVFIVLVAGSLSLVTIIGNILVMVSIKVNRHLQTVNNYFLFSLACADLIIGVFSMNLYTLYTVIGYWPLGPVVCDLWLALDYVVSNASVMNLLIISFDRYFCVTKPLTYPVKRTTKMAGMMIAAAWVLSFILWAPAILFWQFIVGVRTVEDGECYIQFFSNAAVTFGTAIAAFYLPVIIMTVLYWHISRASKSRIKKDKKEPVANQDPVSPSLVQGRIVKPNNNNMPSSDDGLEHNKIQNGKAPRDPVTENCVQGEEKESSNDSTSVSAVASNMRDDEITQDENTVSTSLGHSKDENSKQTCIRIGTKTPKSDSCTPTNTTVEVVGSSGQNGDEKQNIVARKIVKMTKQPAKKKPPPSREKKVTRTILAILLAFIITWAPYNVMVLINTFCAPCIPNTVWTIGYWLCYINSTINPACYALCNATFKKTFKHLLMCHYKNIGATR
Method: as §1, with “ERK1/2” for “Functional assays were performed using the Alphascreen Surefire phospho-ERK1/2 assay (Crouch & Osmond, Comb. Chem. High Throughput Screen, 2008). ERK1/2”
(§2) Isomer assignment (Isomer 1, Isomer 2, etc.) is based on the retention time of the compound using the separation technique that was performed in the final purification step. By implication, this could be reversed phase HPLC, chiral HPLC or chiral SFC retention time, and this will vary from compound to compound.

[3] = molecular target: T3, human muscarinic M3 receptor (Homo sapiens, UniProt P20309); assay: Alphascreen Surefire phospho-ERK1/2 functional assay, M3; settings: for Emax: CHO, read-out: % Emax cf. ACh, M3, CHO cells stably expressing human M3; for Emax / % Emax cf. ACh, M3: Emax relative to ACh; for pEC50: pEC50 M3, CHO cells stably expressing human M3
T3 construct: expressed in transfected cells
Method: as §1, with “ERK1/2” for “Functional assays were performed using the Alphascreen Surefire phospho-ERK1/2 assay (Crouch & Osmond, Comb. Chem. High Throughput Screen, 2008). ERK1/2”
as §2

[4] = molecular target: T4, human muscarinic M4 receptor (Homo sapiens, UniProt P08173); assay: Alphascreen Surefire phospho-ERK1/2 functional assay, M4; settings: for Emax: CHO, read-out: % Emax cf. ACh, M4, CHO cells stably expressing human M4; for Emax / % Emax cf. ACh, M4: Emax relative to ACh; for pEC50: pEC50 M4, CHO cells stably expressing human M4
T4 sequence (P08173 1-479): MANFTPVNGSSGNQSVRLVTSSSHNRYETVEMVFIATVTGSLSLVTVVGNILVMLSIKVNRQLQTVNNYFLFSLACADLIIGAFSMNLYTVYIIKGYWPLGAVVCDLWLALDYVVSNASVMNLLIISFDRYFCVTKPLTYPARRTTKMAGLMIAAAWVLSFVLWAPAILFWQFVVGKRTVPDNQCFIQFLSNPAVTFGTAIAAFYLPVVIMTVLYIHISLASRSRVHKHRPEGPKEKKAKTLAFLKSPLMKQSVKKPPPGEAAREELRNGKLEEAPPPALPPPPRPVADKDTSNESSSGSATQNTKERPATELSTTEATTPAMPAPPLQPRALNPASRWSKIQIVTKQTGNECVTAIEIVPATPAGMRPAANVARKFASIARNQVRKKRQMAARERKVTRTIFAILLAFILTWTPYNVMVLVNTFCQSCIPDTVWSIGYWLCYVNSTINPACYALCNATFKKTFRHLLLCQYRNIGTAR
Method: as §1, with “ERK1/2” for “Functional assays were performed using the Alphascreen Surefire phospho-ERK1/2 assay (Crouch & Osmond, Comb. Chem. High Throughput Screen, 2008). ERK1/2”
as §2

T3 sequence (P20309 whole entry): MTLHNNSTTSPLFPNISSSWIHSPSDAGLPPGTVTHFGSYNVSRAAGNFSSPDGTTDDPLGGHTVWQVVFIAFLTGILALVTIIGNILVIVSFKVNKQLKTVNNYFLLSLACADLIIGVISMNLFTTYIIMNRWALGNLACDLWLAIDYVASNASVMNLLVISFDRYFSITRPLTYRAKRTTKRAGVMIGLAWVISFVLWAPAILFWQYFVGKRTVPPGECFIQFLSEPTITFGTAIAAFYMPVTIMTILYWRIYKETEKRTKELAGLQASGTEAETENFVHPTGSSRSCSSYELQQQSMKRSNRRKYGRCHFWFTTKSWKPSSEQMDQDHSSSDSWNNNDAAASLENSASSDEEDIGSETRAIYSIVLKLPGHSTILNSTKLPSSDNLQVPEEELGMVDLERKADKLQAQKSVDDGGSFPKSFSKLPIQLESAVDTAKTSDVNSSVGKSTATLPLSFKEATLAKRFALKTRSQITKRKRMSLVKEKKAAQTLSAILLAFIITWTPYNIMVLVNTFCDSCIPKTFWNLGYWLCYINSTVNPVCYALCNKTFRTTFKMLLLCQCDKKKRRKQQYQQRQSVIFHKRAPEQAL

CCOC(=O)N1C2COCC1CC(N1CCC(C(=O)NCC3CCC3)CC1)C2 (single isomer, unassigned) [Example 7-3 Isomer 1, Ethyl 7-{4-[(cyclobutylmethyl)carbamoyl]piperidin-1-yl}-3-oxa-9-azabicyclo[3.3.1]nonane-9-carboxylate]
Emax ([1]; CHO, read-out: % Emax cf. ACh, M1, CHO cells stably expressing human M1, Emax relative to ACh): 100%
pEC50 ([1]; phospho-ERK1/2): 7.45
Emax [2]: 62%
pEC50 ([2]; phospho-ERK1/2): 5.83
Emax [3]: 57%
pEC50 ([3]; phospho-ERK1/2): < 4.70
Emax [4]: 97%
pEC50 ([4]; phospho-ERK1/2): 6.56

CCOC(=O)N1C2COCC1CC(N1CCC3(CC1)C(=O)Nc1ccccc13)C2 (single isomer, unassigned) [Example 5-5 Isomer 1, Ethyl 7-(2-oxo-1,2-dihydro-1′H-spiro[indole-3,4′-piperidin]-1′-yl)-3-oxa-9-azabicyclo[3.3.1]nonane-9-carboxylate]
% Emax cf. ACh, M1 ([1]; CHO cells stably expressing human M1, Emax relative to ACh, listed as 5-5 Isomer 1): 75%
pEC50 ([1]; phospho-ERK1/2): 6.54
% Emax cf. ACh, M2 ([2]; CHO cells stably expressing human M2, listed as 5-5 Isomer 1): 24%
pEC50 ([2]; phospho-ERK1/2): 6.91
Emax [3]: 4%
pEC50 ([3]; phospho-ERK1/2): < 4.70
Emax [4]: 99%
pEC50 ([4]; phospho-ERK1/2): 7.67

CCOC(=O)N1C2COCC1CC(N1CCC3(CC1)CNC(=O)O3)C2 (single isomer, unassigned) [Example 5-3 Isomer 2, Ethyl 7-(2-oxo-1-oxa-3,8-diazaspiro[4.5]dec-8-yl)-3-oxa-9-azabicyclo[3.3.1]nonane-9-carboxylate]
% Emax cf. ACh, M1 ([1]; CHO cells stably expressing human M1, Emax relative to ACh): 73%
EC50 ([1]; CHO cells stably expressing human M1, phospho-ERK1/2, read-out: pEC50 M1 (converted)): 126 nM
EC50 ([2]; CHO cells stably expressing human M2, phospho-ERK1/2, read-out: pEC50 M2 (converted)): > 20000 nM
Emax [2]: 4%
EC50 ([3]; CHO cells stably expressing human M3, phospho-ERK1/2, read-out: pEC50 M3 (converted)): > 20000 nM
Emax [3]: 5%
% Emax cf. ACh, M4 ([4]; CHO cells stably expressing human M4): 17%
EC50 ([4]; CHO cells stably expressing human M4, phospho-ERK1/2, read-out: pEC50 M4 (converted)): > 20000 nM

CCOC(=O)N1C2COCC1CC(N1CCC3(CC1)OC(=O)NC3CC)C2 (single isomer, unassigned) [Example 5-4 Isomer 1a, Ethyl 7-(4-ethyl-2-oxo-1-oxa-3,8-diazaspiro[4.5]dec-8-yl)-3-oxa-9-azabicyclo[3.3.1]nonane-9-carboxylate]
% Emax cf. ACh, M1 ([1]; CHO cells stably expressing human M1, Emax relative to ACh, listed as 5-4 Isomer 1a): 76%
pEC50 ([1]; phospho-ERK1/2): 5.83
% Emax cf. ACh, M2 ([2]; CHO cells stably expressing human M2, listed as 5-4 Isomer 1a): 3%
pEC50 ([2]; phospho-ERK1/2): < 4.70
Emax [3]: 2%
pEC50 ([3]; phospho-ERK1/2): < 4.70
% Emax cf. ACh, M4 ([4]; CHO cells stably expressing human M4, listed as 5-4 Isomer 1a): 81%
pEC50 ([4]; phospho-ERK1/2): 6.84

CCOC(=O)N1C2COCC1CC(N1CCC(N3CCCCCC3=O)CC1)C2 (single isomer, unassigned) [Example 6-7 Isomer 2, Ethyl 7-[4-(2-oxoazepan-1-yl)piperidin-1-yl]-3-oxa-9-azabicyclo[3.3.1]nonane-9-carboxylate]
% Emax cf. ACh, M1 ([1]; CHO cells stably expressing human M1, Emax relative to ACh, listed as 6-7 Isomer 2): 41%
pEC50 ([1]; phospho-ERK1/2): 5.66
% Emax cf. ACh, M2 ([2]; CHO cells stably expressing human M2, listed as 6-7 Isomer 2): 5%
pEC50 ([2]; phospho-ERK1/2): < 4.70
% Emax cf. ACh, M3 ([3]; CHO cells stably expressing human M3, listed as 6-7 Isomer 2): 2%
% Emax cf. ACh, M4 ([4]; CHO cells stably expressing human M4, listed as 6-7 Isomer 2): 52%
pEC50 ([4]; phospho-ERK1/2): 6.76

CCOC(=O)N1C2COCC1CC(N1CCC(N3CCCCCC3=O)CC1)C2 (single isomer, unassigned) [Example 6-7 Isomer 1, Ethyl 7-[4-(2-oxoazepan-1-yl)piperidin-1-yl]-3-oxa-9-azabicyclo[3.3.1]nonane-9-carboxylate]
% Emax cf. ACh, M1 ([1]; CHO cells stably expressing human M1, Emax relative to ACh, listed as 6-7 Isomer 1): 111%
pEC50 ([1]; phospho-ERK1/2): 6.19
% Emax cf. ACh, M2 ([2]; CHO cells stably expressing human M2, listed as 6-7 Isomer 1): 87%
pEC50 ([2]; phospho-ERK1/2): 5.99
% Emax cf. ACh, M3 ([3]; CHO cells stably expressing human M3, listed as 6-7 Isomer 1): 28%
pEC50 ([3]; phospho-ERK1/2): < 4.70
% Emax cf. ACh, M4 ([4]; CHO cells stably expressing human M4, listed as 6-7 Isomer 1): 105%
pEC50 ([4]; phospho-ERK1/2): 7.12

CCOC(=O)N1C2COCC1CC(N1CCC(N(CC3(C)CC3)C(C)=O)CC1)C2 (single isomer, unassigned) [Example 6-3 Isomer 1, Ethyl 7-(4-{acetyl[(1-methylcyclopropyl)methyl]amino}piperidin-1-yl)-3-oxa-9-azabicyclo[3.3.1]nonane-9-carboxylate]
% Emax cf. ACh, M1 ([1]; CHO cells stably expressing human M1, Emax relative to ACh, listed as 6-3 Isomer 1): 124%
pEC50 ([1]; phospho-ERK1/2): 6.92
% Emax cf. ACh, M2 ([2]; CHO cells stably expressing human M2, listed as 6-3 Isomer 1): 36%
pEC50 ([2]; phospho-ERK1/2): 6.45
% Emax cf. ACh, M3 ([3]; CHO cells stably expressing human M3, listed as 6-3 Isomer 1): 390%
pEC50 ([3]; phospho-ERK1/2): < 4.70
% Emax cf. ACh, M4 ([4]; CHO cells stably expressing human M4, listed as 6-3 Isomer 1): 93%
pEC50 ([4]; phospho-ERK1/2): 7.22

CCOC(=O)N1C2COCC1CC(N1CCC(n3cc(Cl)cn3)CC1)C2 (single isomer, unassigned) [Example 1-2 Isomer 2, Ethyl 7-[4-(4-chloro-1H-pyrazol-1-yl)piperidin-1-yl]-3-oxa-9-azabicyclo[3.3.1]nonane-9-carboxylate]
% Emax cf. ACh, M1 ([1]; CHO cells stably expressing human M1, Emax relative to ACh, listed as 1-2 Isomer 2): 67%
pEC50 ([1]; phospho-ERK1/2): 7.11
% Emax cf. ACh, M2 ([2]; CHO cells stably expressing human M2, listed as 1-2 Isomer 2): 10%
pEC50 ([2]; phospho-ERK1/2): < 4.70
Emax [3]: 2%
pEC50 ([3]; phospho-ERK1/2): < 4.70
% Emax cf. ACh, M4 ([4]; CHO cells stably expressing human M4, listed as 1-2 Isomer 2): 51%
pEC50 ([4]; phospho-ERK1/2): 7.88
